Laboratory results published in PMC10849753, “Antiproliferative activity of platinum(II) and copper(II) complexes containing novel biquinoxaline ligands” (Metallomics: Integrated Biometal Science, 2024).

Assays:
Type in all cases: cell-based, human
[1] = tested on: U87 cells; assay: Matrigel invasion analysis; details: U87, 6.25 and 12.5 μM, 24 h, vs negative control
Description: The analysis was completed with U87 and HeLa cell lines to assess the metastatic potential of tumor cells using transwell inserts with an 8 μm pore size polycarbonate membrane (Corning Costar, Cambridge, MA, USA) coated with 1/5 of Matrigel (Beckton Dickinson, Bedford, MA, USA) and air-dried at room temperature. After seeding the U87 and HeLa cell lines (3 × 10^5cells/insert), the complex concentrations were selected as 6.25 or 12.5 μM and incubated at 37°C in a humidified incubator with 5% CO2 for 24 h. The cell monolayers in the transwell inserts were fixed with ice-cold methanol and stained with 0.05% crystal violet for the analysis. The invasion of the cells to the basolateral side of the inserts was investigated using a light microscope with 40× magnification.

[2] = tested on: HeLa cells; assay: In vitro comet assay; details: 25 and 50 μM, 24 h
Description: (§1) Commet assay was performed with U87 and HeLa cell lines (4 × 10^4 cells/well) to detect DNA damage in the individual eukaryotic cells, where 25 or 50 μM Cu(II) or Pt(II) complexes were added to the cells and incubated for 24 h. Subsequently, the comet assay was performed as described before.[31] The DNA damage was evaluated by calculating the DNA tail percentage using the following equation: DNA tail % = 100× tailing DNA density/cell DNA density. The assay was repeated twice, and 50 individual cells were involved for each treatment.

[3] = tested on: U87 cells; assay: In vitro comet assay; details: U87, 25 and 50 μM, 24 h
Description: as §1

[Cl][Cu][Cl].c1ccc(-c2nc3ccc(-c4ccc5nc(-c6ccccn6)c(-c6ccccn6)nc5c4)cc3nc2-c2ccccn2)nc1 [Cu(tpbq)Cl2]
anti-invasive effect [1]: did not have any anti-invasive effect

[Cl][Cu][Cl].c1csc(-c2nc3ccc(-c4ccc5nc(-c6cccs6)c(-c6cccs6)nc5c4)cc3nc2-c2cccs2)c1 [Cu(ttbq)Cl2]
genotoxicity (DNA damage, comet) [2]: only genotoxic on the Hela cells at a high concentration (50 μM)
genotoxicity (DNA damage, comet) [3]: caused DNA damage on the U87 cells at both concentrations

[Cl][Pt][Cl].c1csc(-c2nc3ccc(-c4ccc5nc(-c6cccs6)c(-c6cccs6)nc5c4)cc3nc2-c2cccs2)c1 [Pt(ttbq)Cl2]
genotoxicity (DNA damage, comet) [3]: caused DNA damage on the U87 cells at both concentrations
